pIC50: −log10 of the molar value.
Experiment: Anticancer human tumor 997537-175-T-J1-PDC patient-derived colon adenocarcinoma cell line growth inhibition [POLQ]
Details: 997537-175-T-J1-PDC complex spheroid viability, combination with POLQ inhibitors; for pIC50: curve of first compound; for viability, T/C: stronger effect = lower value
Procedure, shortened: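 Patient-derived tumour cells were co-cultured with HUVEC and mesenchymal stem cells as multicellular spheroids at 37 °C. They were treated with POLQ inhibitors (novobiocin, ART-558, RP6685) alone or combined with other agents. Top concentrations were at or near clinical Cmax (otherwise 10 microM; SN-38 at 1 microM), decreasing in half-log steps.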

[1] = second compound 0.0316 µM, first compound 0.0316 µM
[2] = second compound 0.0316 µM, first compound 0.1 µM
[3] = second compound 0.0316 µM, first compound 0.316 µM
[4] = second compound 0.0316 µM, first compound 1 µM
[5] = second compound 0.1 µM, first compound 0.0316 µM
[6] = second compound 0.1 µM, first compound 0.1 µM
[7] = second compound 0.1 µM, first compound 0.316 µM
[8] = second compound 0.1 µM, first compound 1 µM
[9] = second compound 0.316 µM, first compound 0.0316 µM
[10] = second compound 0.316 µM, first compound 0.1 µM
[11] = second compound 0.316 µM, first compound 0.316 µM
[12] = second compound 0.316 µM, first compound 1 µM
[13] = second compound 1 µM, first compound 0.0316 µM
[14] = second compound 1 µM, first compound 0.1 µM
[15] = second compound 1 µM, first compound 0.316 µM
[16] = second compound 1 µM, first compound 1 µM
[17] = second compound 3.16 µM, first compound 0.0316 µM
[18] = second compound 3.16 µM, first compound 0.1 µM
[19] = second compound 3.16 µM, first compound 0.316 µM
[20] = second compound 3.16 µM, first compound 1 µM
[21] = second compound 10 µM, first compound 0.0316 µM
[22] = second compound 10 µM, first compound 0.1 µM
[23] = second compound 10 µM, first compound 0.316 µM
[24] = second compound 10 µM, first compound 1 µM
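Note: luminescence signal used as a surrogate for viable cells; spheroids exposed to drugs for seven days before readout.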

C=CCn1c(=O)c2cnc(Nc3ccc(N4CCN(C)CC4)cc3)nc2n1-c1cccc(C(C)(C)O)n1 + Cc1cccc(N(C)C(=O)C2C(O)CCN2c2nc(C)cc(C(F)(F)F)c2C#N)c1
pIC50 (second compound 0.0316 µM): < 6.00
pIC50 (second compound 0.1 µM): < 6.00
pIC50 (second compound 0.316 µM): < 6.00
pIC50 (second compound 1 µM): < 6.00
pIC50 (second compound 3.16 µM): < 6.00
pIC50 (second compound 10 µM): < 6.00
viability, T/C (second compound 0.0316 µM, first compound 0.00316 µM): 101%
viability, T/C (second compound 0.0316 µM, first compound 0.01 µM): 100%
viability, T/C [1]: 93.9%
viability, T/C [2]: 90.9%
viability, T/C [3]: 100%
viability, T/C [4]: 76.2%
viability, T/C (second compound 0.1 µM, first compound 0.00316 µM): 99.4%
viability, T/C (second compound 0.1 µM, first compound 0.01 µM): 109%
viability, T/C [5]: 95%
viability, T/C [6]: 88.8%
viability, T/C [7]: 81.2%
viability, T/C [8]: 64.2%
viability, T/C (second compound 0.316 µM, first compound 0.00316 µM): 89.4%
viability, T/C (second compound 0.316 µM, first compound 0.01 µM): 113%
viability, T/C [9]: 110%
viability, T/C [10]: 91.9%
viability, T/C [11]: 83.2%
viability, T/C [12]: 75%
viability, T/C (second compound 1 µM, first compound 0.00316 µM): 118%
viability, T/C (second compound 1 µM, first compound 0.01 µM): 109%
viability, T/C [13]: 106%
viability, T/C [14]: 99.8%
viability, T/C [15]: 113%
viability, T/C [16]: 84.9%
viability, T/C (second compound 3.16 µM, first compound 0.00316 µM): 93.2%
viability, T/C (second compound 3.16 µM, first compound 0.01 µM): 95.6%
viability, T/C [17]: 101%
viability, T/C [18]: 96.1%
viability, T/C [19]: 85.4%
viability, T/C [20]: 59.6%
viability, T/C (second compound 10 µM, first compound 0.00316 µM): 111%
viability, T/C (second compound 10 µM, first compound 0.01 µM): 99.5%
viability, T/C [21]: 95.3%
viability, T/C [22]: 93.6%
viability, T/C [23]: 78.9%
viability, T/C [24]: 94.8%

CNCc1ccc(-c2[nH]c3cc(F)cc4c3c2CCNC4=O)cc1 + Cc1cccc(N(C)C(=O)C2C(O)CCN2c2nc(C)cc(C(F)(F)F)c2C#N)c1
pIC50 (second compound 0.0316 µM): < 5.00
pIC50 (second compound 0.1 µM): < 5.00
pIC50 (second compound 0.316 µM): < 5.00
pIC50 (second compound 1 µM): < 5.00
pIC50 (second compound 3.16 µM): < 5.00
pIC50 (second compound 10 µM): < 5.00
viability, T/C [1]: 94.7%
viability, T/C [2]: 114%
viability, T/C [3]: 81.6%
viability, T/C [4]: 87.9%
viability, T/C (second compound 0.0316 µM, first compound 3.16 µM): 109%
viability, T/C (second compound 0.0316 µM, first compound 10 µM): 85.3%
viability, T/C [5]: 119%
viability, T/C [6]: 94.2%
viability, T/C [7]: 103%
viability, T/C [8]: 104%
viability, T/C (second compound 0.1 µM, first compound 3.16 µM): 101%
viability, T/C (second compound 0.1 µM, first compound 10 µM): 121%
viability, T/C [9]: 105%
viability, T/C [10]: 103%
viability, T/C [11]: 99.5%
viability, T/C [12]: 102%
viability, T/C (second compound 0.316 µM, first compound 3.16 µM): 119%
viability, T/C (second compound 0.316 µM, first compound 10 µM): 89.5%
viability, T/C [13]: 92.4%
viability, T/C [14]: 113%
viability, T/C [15]: 99%
viability, T/C [16]: 86.3%
viability, T/C (second compound 1 µM, first compound 3.16 µM): 99.8%
viability, T/C (second compound 1 µM, first compound 10 µM): 90.2%
viability, T/C [17]: 116%
viability, T/C [18]: 84.8%
viability, T/C [19]: 99.8%
viability, T/C [20]: 117%
viability, T/C (second compound 3.16 µM, first compound 3.16 µM): 82.1%
viability, T/C (second compound 3.16 µM, first compound 10 µM): 96.9%
viability, T/C [21]: 103%
viability, T/C [22]: 112%
viability, T/C [23]: 94.2%
viability, T/C [24]: 101%
viability, T/C (second compound 10 µM, first compound 3.16 µM): 95.5%
viability, T/C (second compound 10 µM, first compound 10 µM): 89.4%

Reference: PubChem BioAssay AID1963825 (Molecular Pharmacology Branch, DTP, NCI, 2024)
